# Assay results published in ChEMBL document CHEMBL3885861, “Open TG-GATES”.
# Organism: Rattus norvegicus
# Experiment: Open TG-GATES - Regimen: Single
# Type: toxicity, organism-based, Sprague-Dawley
# Parameters: regimen Single, gender Male, age 6 weeks
# Settings: in vivo, po, 2000 mg/kg, route gavage, dose level High; for APTT / Bas / Eos / Fbg / Hb / Ht / Lym / MCH / MCHC / MCV / Mono / Neu / PT / Plat / RBC / Ret / WBC: tissue Blood; for KIDNEY_L / KIDNEY_R / KIDNEY_TOTAL: tissue Kidney; for LIVER: tissue Liver; for A/G / ALP / ALT / AST / BUN / CRE / Ca / Cl / DBIL / GLC / IP / K / LDH / Na / PL / RALB / TBIL / TC / TG / TP / gamma-GTP: tissue Plasma
smiles,measurement,setting,value
Clc1c(Cl)c(Cl)c(Cl)c(Cl)c1Cl [PERCHLOROBENZENE],TERMINAL_BW,3 h,219.3 g
same,APTT,3 h,19.9 s
same,Bas,3 h,0.4%
same,Eos,3 h,1%
same,Fbg,3 h,223.4 mg/dL
same,Hb,3 h,13.8 g/dL
same,Ht,3 h,38.5%
same,Lym,3 h,76.4%
same,MCH,3 h,22.1 pg
same,MCHC,3 h,35.7%
same,MCV,3 h,62 fL
same,Mono,3 h,2.2%
same,Neu,3 h,19.2%
same,PT,3 h,12 s
same,Plat,3 h,128.8 x10_4/uL
same,RBC,3 h,621.4 x10_4/ul
same,Ret,3 h,7.4%
same,WBC,3 h,104.4 x10_2/uL
same,KIDNEY_L,3 h,1 g
same,KIDNEY_R,3 h,1 g
same,KIDNEY_TOTAL,3 h,2 g
same,LIVER,3 h,10.1 g
same,A/G,3 h,1.6
same,ALP,3 h,1055.8 IU/L
same,ALT,3 h,37.2 IU/L
same,AST,3 h,76.8 IU/L
same,BUN,3 h,10.8 mg/dL
same,CRE,3 h,0.4 mg/dL
same,Ca,3 h,11 mg/dL
same,Cl,3 h,103 meq/L
same,DBIL,3 h,0.062 mg/dL
same,GLC,3 h,192.6 mg/dL
same,IP,3 h,9.3 mg/dL
same,K,3 h,3.8 meq/L
same,LDH,3 h,231.2 IU/L
same,Na,3 h,141.4 meq/L
same,PL,3 h,151 mg/dL
same,RALB,3 h,3.4 g/dL
same,TBIL,3 h,0.1 mg/dL
same,TC,3 h,74.6 mg/dL
same,TG,3 h,132 mg/dL
same,TP,3 h,5.6 g/dL
same,gamma-GTP,3 h,1.2 IU/L
same,TERMINAL_BW,6 h,215.7 g
same,APTT,6 h,19.3 s
same,Bas,6 h,0.2%
same,Eos,6 h,1%
same,Fbg,6 h,239.6 mg/dL
same,Hb,6 h,13.6 g/dL
same,Ht,6 h,39.1%
same,Lym,6 h,74%
same,MCH,6 h,21.2 pg
same,MCHC,6 h,34.6%
same,MCV,6 h,61 fL
same,Mono,6 h,2.6%
same,Neu,6 h,20.8%
same,PT,6 h,12 s
same,Plat,6 h,134.1 x10_4/uL
same,RBC,6 h,641.6 x10_4/ul
same,Ret,6 h,7.1%
same,WBC,6 h,105.2 x10_2/uL
same,KIDNEY_L,6 h,0.9 g
same,KIDNEY_R,6 h,0.9 g
same,KIDNEY_TOTAL,6 h,1.8 g
same,LIVER,6 h,9 g
same,A/G,6 h,1.8
same,ALP,6 h,1089.2 IU/L
same,ALT,6 h,34 IU/L
same,AST,6 h,77.2 IU/L
same,BUN,6 h,9.4 mg/dL
same,CRE,6 h,0.4 mg/dL
same,Ca,6 h,10.6 mg/dL
same,Cl,6 h,102.8 meq/L
same,DBIL,6 h,0.072 mg/dL
same,GLC,6 h,196.2 mg/dL
same,IP,6 h,9.3 mg/dL
same,K,6 h,3.9 meq/L
same,LDH,6 h,219 IU/L
same,Na,6 h,141.2 meq/L
same,PL,6 h,132.6 mg/dL
same,RALB,6 h,3.5 g/dL
same,TBIL,6 h,0.1 mg/dL
same,TC,6 h,73.8 mg/dL
same,TG,6 h,55 mg/dL
same,TP,6 h,5.5 g/dL
same,gamma-GTP,6 h,1 IU/L
same,TERMINAL_BW,9 h,214.9 g
same,APTT,9 h,17.8 s
same,Bas,9 h,0%
same,Eos,9 h,1%
same,Fbg,9 h,224.6 mg/dL
same,Hb,9 h,13.5 g/dL
same,Ht,9 h,38.5%
same,Lym,9 h,74.2%
same,MCH,9 h,21.5 pg
same,MCHC,9 h,35.1%
same,MCV,9 h,61.4 fL
same,Mono,9 h,2.2%
same,Neu,9 h,21%
same,PT,9 h,12 s
same,Plat,9 h,126.2 x10_4/uL
same,RBC,9 h,626.2 x10_4/ul
same,Ret,9 h,7.3%
same,WBC,9 h,92.9 x10_2/uL
same,KIDNEY_L,9 h,1 g
same,KIDNEY_R,9 h,1 g
same,KIDNEY_TOTAL,9 h,1.9 g
same,LIVER,9 h,9 g
same,A/G,9 h,1.7
same,ALP,9 h,944.6 IU/L
same,ALT,9 h,26.4 IU/L
same,AST,9 h,68.4 IU/L
same,BUN,9 h,10.6 mg/dL
same,CRE,9 h,0.4 mg/dL
same,Ca,9 h,10.6 mg/dL
same,Cl,9 h,103.4 meq/L
same,DBIL,9 h,0.064 mg/dL
same,GLC,9 h,207.2 mg/dL
same,IP,9 h,10.7 mg/dL
same,K,9 h,4.1 meq/L
same,LDH,9 h,216.6 IU/L
same,Na,9 h,141.2 meq/L
same,PL,9 h,130.2 mg/dL
same,RALB,9 h,3.4 g/dL
same,TBIL,9 h,0.1 mg/dL
same,TC,9 h,68 mg/dL
same,TG,9 h,44 mg/dL
same,TP,9 h,5.4 g/dL
same,gamma-GTP,9 h,0.8 IU/L
same,TERMINAL_BW,24 h,231.5 g
same,APTT,24 h,18.5 s
same,Bas,24 h,0.2%
same,Eos,24 h,1%
same,Fbg,24 h,233.4 mg/dL
same,Hb,24 h,13.7 g/dL
same,Ht,24 h,39.3%
same,Lym,24 h,76.4%
same,MCH,24 h,21 pg
same,MCHC,24 h,34.8%
same,MCV,24 h,60.4 fL
same,Mono,24 h,2.6%
same,Neu,24 h,19%
same,PT,24 h,11.6 s
same,Plat,24 h,126.2 x10_4/uL
same,RBC,24 h,651.6 x10_4/ul
same,Ret,24 h,6%
same,WBC,24 h,100 x10_2/uL
same,KIDNEY_L,24 h,1 g
same,KIDNEY_R,24 h,0.9 g
same,KIDNEY_TOTAL,24 h,1.9 g
same,LIVER,24 h,11.1 g
same,A/G,24 h,1.5
same,ALP,24 h,1190.4 IU/L
same,ALT,24 h,36.2 IU/L
same,AST,24 h,71.4 IU/L
same,BUN,24 h,14.8 mg/dL
same,CRE,24 h,0.4 mg/dL
same,Ca,24 h,10.7 mg/dL
same,Cl,24 h,103.4 meq/L
same,DBIL,24 h,0.052 mg/dL
same,GLC,24 h,195.6 mg/dL
same,IP,24 h,7.4 mg/dL
same,K,24 h,3.9 meq/L
same,LDH,24 h,229.6 IU/L
same,Na,24 h,141.2 meq/L
same,PL,24 h,139.6 mg/dL
same,RALB,24 h,3.3 g/dL
same,TBIL,24 h,0.1 mg/dL
same,TC,24 h,74 mg/dL
same,TG,24 h,108.8 mg/dL
same,TP,24 h,5.5 g/dL
same,gamma-GTP,24 h,1.2 IU/L
